Values joined by “and” are separate entries in the source; they are usually repeats but may differ in a detail not shown here. Equal values may be shown once. “Also recorded” adds a separate entry of the source.
How the values were obtained:
[1] = test system: nasal colonization of MSSA; experiment: Human study Part Two: nasal colonization of erythromycin resistant MSSA, NOVEON laser plus 2% erythromycin paste; assay type: in vivo, Staphylococcus aureus; conditions: six patients, before phototherapy
Protocol: (§1) A second human study was conducted, to further evaluate the therapeutic potential of the NOVEON™ laser system, including its ability to reverse drug resistance in bacteria. The study was conducted in a similar manner as Part One, above. Outcome measures assessed included both laboratory study and clinical observations.
(§2) Positive anterior nares cultures were obtained in six patients (12 nostrils) having nasal colonization of MRSA or MSSA, before initiating bacterial photodamage through doses of phototherapeutic near infrared radiation.
(§3) The swab was inserted approximately 1 cm in to the anterior nares of the subject, rotated 360 degrees several times and removed.
(§4) The laser was calibrated before the first treatment of the day and between each patient. The NOVEON™ laser was used for four six-minute treatments of the nares at the following sets of dosimetries (Tables 45), which were evaluated for safety in previous studies. Utilizing a 10 cm flat-top diffuser, each patient underwent exposure with the Noveon for […] (energy density—207 J/cm2) to each anterior nostril on Day 1 and on Day 3. The treatment was divided into two parts, an approximately 3-minute exposure using a combination of 870 nm and 930 nm and an approximately 3-minute exposure of 930 nm alone. Temperatures of the nares were recorded every 30 seconds with an IR temperature thermometer.

[2] = test system: nasal colonization of MRSA; experiment: Human study Part Two: nasal colonization of erythromycin resistant MRSA, NOVEON laser plus 2% erythromycin paste; assay type: in vivo, Staphylococcus aureus; conditions: six patients, before phototherapy
Protocol: as §1, §2, §3, §4

[3] = test system: MRSA colonization in the nares; experiment: Human study Part One: nasal colonization of MRSA, NOVEON laser alone, with H2O2 or with topical erythromycin; assay type: in vivo, Staphylococcus aureus
Protocol: (§5) This investigational protocol was an open-label study of subjects who are colonized with MRSA in the nares (nostril). The study was done in two parts.
(§6) In this human study, three arms were produced. […] This was done on day 1 and again on day three; and Arm #3: ⅓ of the subjects were treated with the laser and then a topical antibiotic three times a day for five days. Prior to enrollment in this study, prospective subjects met all of the following criteria: age≧18 years and ≦70 years of age; previous positive MRSA culture; negative urine pregnancy test or post-menopausal for one year; willing to comply with study requirements, including return visits and self-application of topical antibiotics; and willing to provide informed consent to participate. Prospective subjects were excluded from this study if any of the following criteria were met: pregnancy; patients who are severely immunocompromised (such as may occur in AIDS, renal transplant regimens, immunosuppressed states consequent to malignancy or agents used in rendering oncologic care, or who suffer from end stage renal disease); diabetic patients; allergy to antimicrobials being used in the study (group 3).
(§7) All participants underwent an initial quantitative assessment for nasal carriage of S. aureus, during their first visit. Each participant had the anterior nares (each nostril) sampled for culture with a circular movement (three rotations on each side) of a sterile wood applicator plain Rayon® tipped swab in each nostril and placed in a labeled tube. 2 ml of room temp phosphate buffered saline was placed in the tube after the removal of the swab (to completely cover the swab in the tube). Each swab was then placed back in the tube and the tube was then vortexed for 15 seconds to disperse isolates of MRSA and/or MSSA into the PBS solution. Aliquots of PBS from the tube were plated in the following manner: 100 μl from each tube was lawn plated in triplicate (3×) on selective Chromogenic MRSA And MSSA agar. Plates were placed in incubator within 30 minutes of the plating procedure, and colonies were counted manually, and recorded 18 hrs after plating.
(§8) On day one of the study, all subjects underwent this exact procedure in arms 1 and 2 of the study two minutes before the laser procedure. They again were sampled in the same manner 2 minutes after the laser procedure. In the third arm of the study, they were swabbed two minutes before the procedure and the first antibiotic administration was completed after the laser therapy. The post/laser swab sample was taken for this arm 20 min later.
(§9) On day three of the study, all subjects from arms one two and three underwent the exact same procedures as day 1 of the study.
(§10) On day five all subjects from all arms underwent just one swabbing per nostril with the exact same sampling procedure one time.
(§11) 3% OTC hydrogen peroxide was applied to a cotton pledget for application to the subject prior to irradiation. This was inserted in the nose for 120 seconds and then removed. The subjects were then given doses of phototherapeutic near infrared radiation as described.
(§12) The subjects were first given doses of phototherapeutic near infrared radiation as described. […] The swab was inserted approximately 1 cm in to the anterior nares and rotated 360 degrees several times and removed. Patients were instructed to perform the exact application procedure 3 times a day for the remaining 5 days.
(§13) The NOVEON™ laser was used for two (2) six-minute treatments in each nostril on day (1) and day (3) of the study.
(§14) The laser was calibrated before the first treatment of the day. Intermittent temperature testing of the treatment site was performed on each subject using a noncontact infrared thermometer (Raytek Minitemp), 30-60 second intervals. If a temperature of 110 F degrees was reached, or the patient complained of pain, the laser treatment was interrupted and only resumed when the patient was comfortable.

[4] = test system: MSSA colonies in the nares; experiment: Human study Part One: nasal colonization of MSSA, NOVEON laser alone, with H2O2 or with topical erythromycin; assay type: in vivo, Staphylococcus aureus; conditions: patient 01-005, Laser/erythromycin arm
Protocol: as §5, §6, §7, §8, §9, §10, §11, §12, §13, §14

[5] = test system: MRSA; experiment: MRSA CFU counts on agar with trimethoprim or erythromycin after sub-lethal NIMELS laser (Example VIII); assay type: cell-based, Staphylococcus aureus
Excerpt: The following illustrates the general antibacterial methods according to the invention, using a MRSA model for the in vitro Experiments V and VIII-XII.
a) μ1 is sub-lethal dosimetry from the NIMEL laser system on MRSA as a control and;

[6] = test system: MRSA; experiment: MRSA/antimicrobial potentiation Experiment 4: CFU with or without methicillin, penicillin G or erythromycin, groups A4 to F4; assay type: cell-based, Staphylococcus aureus; conditions: for CFU: agar with 4 μg/ml erythromycin
Protocol: Two different laser dosages based on an effective dose established in previous experiments were used to treat a saline-suspension of logarithmically growing MRSA, labeled A4 to F4.
After 24 hrs of growth at 37° C. colonies were counted.

[7] = patient 01-005, Laser/erythromycin arm, 2% erythromycin paste 3 times a day

## CC[C@H]1OC(=O)[C@H](C)[C@@H](O[C@H]2C[C@@](C)(OC)[C@@H](O)[C@H](C)O2)[C@H](C)[C@@H](O[C@@H]2O[C@H](C)C[C@H](N(C)C)[C@H]2O)[C@](C)(O)C[C@@H](C)C(=O)[C@H](C)[C@@H](O)[C@]1(C)O [Erythromycin]
[1]
  erythromycin resistance of cultured MSSA at baseline: resistant to erythromycin
[2]
  erythromycin resistance of cultured MRSA at baseline: resistant to erythromycin
[3]; patient 01-005, Laser/erythromycin arm
  outcome on MRSA colonization (in words): MRSA and MSSA eradication in both nostrils
[3]; [7]
  reduction of bioburden, heavily colonized nostril: ≥ 3 log
  reduction of bioburden, moderately colonized nostril: ≥ 2 log
[3]; patient 01-005, prior to phototherapy
  sensitivity of the patient's MRSA colony to erythromycin before phototherapy: not sensitive to erythromycin prior to phototherapy
[4]
  outcome on MSSA colonization (in words): MRSA and MSSA eradication in both nostrils
[5]; sub-lethal NIMELS laser, then plated on agar with erythromycin 4 ug/ml, plates B-4 1 to 5
  MRSA colony count, EXPERIMENTAL, erythro 4 ug/ml: 27 and 39 and 35 and 28
[5]; sub-lethal laser parameters, erythromycin 4 ug/ml
  effect of sub-lethal NIMELS on antibiotic resistance of MRSA (in words): resistance to erythromycin being reversed
[6]; Group E4, Exp (laser treated), replicate plates 1-5
  CFU: 0 CFU (3×) and 1 CFU (2×)
[6]; Group F4, Cont (no laser), replicate plates 1-5, 24 hrs 37° C.
  CFU: 170 CFU
[6]; Group F4, Exp (laser treated), replicate plates 1-5
  CFU: 2 CFU and 7 CFU and 6 CFU (2×) and 8 CFU
[6]; sub-lethal NIMELS dosimetry, bar chart figure
  synergy or potentiation with NIMELS in growth inhibition of MRSA colonies (in words): synergistic effects; also recorded: potentiated to a greater extent
[6]; temperature levels not lethal to the organism
  reversal of MRSA resistance in vitro by dual wavelength NOVEON laser (in words): successful reversal of MRSA resistance
